In brackets after ≈: the same amount, converted by molar mass.
Tests used:
Type in all cases: cell-based
[1] = tested on: MCF-7 cell line (breast cancer); test: MTT cell viability assay, MCF-7 cell line (breast cancer); details: Homo sapiens, MCF7; MCF-7, MTT, 48 hours; read-out: half maximal inhibitory concentration (IC50), MCF-7
Description: (§1) Cell proliferation of A549 cell line (lung cancer), CT26 cell line (colon cancer), DU145 cell line (prostate cancer), HepG2 cell line (liver cancer), PC3 cell line (prostate cancer), MDA-MB-231 cell line (breast cancer) and MCF-7 cell line (breast cancer) was assessed by MTT cell viability assay.
(§2) Above cell lines were cultured in determined medium for 24 hours. Proliferative cells were washed with PBS solution, treated with trpsin-EDTA (1×), centrifuged at 1,200 rpm for 5 min, precipitated the cells and discarded supernatant. The cells were resuspended with 10 ml of fresh medium, and then loaded to 96-well plate. While the assay initiated, 0.01˜200 μg/ml of Antrodia camphorata extract was added in each well, and the plate was incubated for 48 hours, at 37° C., 5% CO2. Each wall was added with 2.5 mg/ml MTT reagent in the dark. After 4 hours of reaction, 100 μl lysis buffer were added to each wall to terminate the reaction. […] The experiment data was represented by means±SD. All data was statistically analyzed by paired-t test, and a P-value less than 0.05 was considered significant.

[2] = tested on: DU145 cell line (prostate cancer); test: MTT cell viability assay, DU145 cell line (prostate cancer); details: Homo sapiens; DU-145, MTT, 48 hours; read-out: half maximal inhibitory concentration (IC50), DU-145
Description: as §1, §2

[3] = tested on: PC3 cell line (prostate cancer); test: MTT cell viability assay, PC3 cell line (prostate cancer); details: Homo sapiens, PC-3, 48 hours, read-out: half maximal inhibitory concentration (IC50), PC3
Description: as §1, §2

[4] = tested on: CT26 cell line (colon cancer); test: MTT cell viability assay, CT26 cell line (colon cancer); details: Mus musculus, 48 hours, read-out: half maximal inhibitory concentration (IC50), CT26
Description: as §1, §2

[5] = tested on: A549 cell line (lung cancer); test: MTT cell viability assay, A549 cell line (lung cancer); details: Homo sapiens, 48 hours, read-out: half maximal inhibitory concentration (IC50), A549
Description: as §1, §2

[6] = tested on: HepG2 cell line (liver cancer); test: MTT cell viability assay, HepG2 cell line (liver cancer); details: Homo sapiens, 48 hours, read-out: half maximal inhibitory concentration (IC50), HepG2
Description: as §1, §2

[7] = tested on: MDA-MB-231 cell line (breast cancer); test: MTT cell viability assay, MDA-MB-231 cell line (breast cancer); details: Homo sapiens; MDA-MB-231, MTT, 48 hours; read-out: half maximal inhibitory concentration (IC50), MDA-MB-231
Description: as §1, §2

[8] = Solvent (DMSO) cytotoxicity, cell death; details: DMSO content of diluted drug; cell line not stated
Description: The symbols used in tables respectively represent: 0-25% cell viability: +/−; 25˜50% cell viability: +; 50˜75% cell viability: ++, 75˜100% cell viability: +++, >100% cell viability: ++++. […] In this experiment, when the drug concentration was diluted to […], DMSO concentration was 0.5%.

IC50 [1] [µg/mL]	IC50 [2] [µg/mL]	IC50 [3] [µg/mL]	IC50 [4] [µg/mL]	IC50 [5] [µg/mL]	IC50 [6] [µg/mL]	IC50 [7] [µg/mL]	SMILES	IC50 value of the solvent (50% cell death) [8] [%]
0.1 ± 0.01 (≈ 0.246 µM)	0.07 ± 0.001 (≈ 0.172 µM)	0.009 ± 0.001 (≈ 0.0221 µM)	0.011 ± 0.001 (≈ 0.0271 µM)	0.014 ± 0.002 (≈ 0.0344 µM)	0.004 ± 0.001 (≈ 0.00984 µM)	1.01 ± 0.06 (≈ 2.48 µM)	COC1=C(OC)[C@H](O)[C@H](C/C=C(\C)CC/C=C(\C)C/C=C/C(C)(C)O)[C@@H](C)C1=O [Antrocamol LT3, (4R,5R,6R)-4-hydroxy-5-[(2E,6E,9E)-11-hydroxy-3,7,11-trimethyldodeca-2,6,9-trienyl]-2,3-dimethoxy-6-methylcyclohex-2-enone]	
							C[S+](C)[O-] [DMSO]	2.34

Reference: patent publication US9474775B2, “Compound, extract isolated from antrodia camphorate, and method using the same” (priority 2013, dated 2016)
